Measurements from patent publication US8609729B2, “Method for treating macular degeneration” (Sucampo AG, priority 2009, dated 2013).

Columns and labels:
Assay type in all cases: cell-based
[1] = system: Human retinal pigment epithelium cells (ARPE-19 cells); assay: Protection from light induced cell death in A2E containing RPE cells (WST-8 viability)
Procedure: Protection by Compound A from light induced cell death in pyridinium bis-retinoid (A2E) containing retinal pigment epithelium (RPE) cells
Human retinal pigment epithelium cells (ARPE-19 cells) were used in the study. ARPE-19 cells were maintained in DMEM/F12 medium (supplemented with 10% FBS and 1% Penicillin-Streptomycin Mixed Sol.) in 25 cm^2 or 75 cm^2 culture flask. For the experiment, the cells were seeded on multi-well chamber slides. After confirming the cells adhered to slide, the media were changed to pyridinium bis-retinoid (A2E) containing culture medium and the cells were cultured for 5-14 days The media were changed to phosphate buffered saline (containing A2E), and then the cells were exposed to blue light (430 nm) delivered from a halogen source for 20 min. Compound A dissolved in dimethyl sulfoxide was added 1 hr before the light: exposure (the final concentration was 10 and 50 nM). After the light exposure, the cells were cultured in the DMEM/F12 medium for 24 hours. The cells were then incubated in DMEM/F12 medium containing 10% WST-8 (without A2Z) for 4 hours. Absorbance at 450 nm was measured. An increase in the absorbance is indicative of cellular viability.

[2] = system: Human retinal pigment epithelium cells (ARPE-19 cells); assay: Trans-Epithelial Resistance (TER) of ARPE-19 cells treated with tert-butyl hydroperoxide (tBH); settings: 100 nM Compound A plus 100 μM tBH; TER at 0, 6, 18, 24 and 48 hours; FIG. 1
Procedure: (§1) Human retinal pigment epithelium cells (ARPE-19 cells, purchased from American Type Culture Collection (ATCC)) were used in the study. ARPE-19 cells were grown on Corning Transwell 0.4 μm pore size filters (Corning Incorporated, NY, USA) in Dulbecco's modified Eagles medium containing 10% fetal calf serum. Trans-Epithelial Resistance (TER) of the cultured cells was determined using an EVOM volt-ohm meter. The TER of the cultured cells was determined by subtracting the resistance value measured with the filter alone from the value measured with the cultured cells.
The cells were grown until they reached a TER of approximately 50 Ohm/1.2 cm^2. They were then treated with 100 μM tert-butyl hydroperoxide (tBH) in 0.1% decane, 100 nM Compound A (isopropyl unoprostone, i.e. 13,14-dihydro-15-keto-20-ethyl-PGF2α isopropyl ester) in DMSO (0.1% final DMSO), or a combination of tBH plus Compound A. TER was determined at 0, 6, 18, 24 and 48 hours after the treatment.

[3] = system: Human retinal pigment epithelium cells (ARPE-19 cells); assay: Barrier function: passage of 3,000 Dalton FITC-labeled dextran from apical to basolateral media of tBH-treated ARPE-19 cells; settings: 100 nM Compound A plus 100 μM tBH; dextran added at 20 hours, fluorescence at 44 hours; FIG. 2
Procedure: as §1
ARPE-19 cells grown until they reached a TER of approximately 50 Ohm/1.2 cm^2 were treated with 100 μM tBH in 0.1% decane, 100 nM Compound A in DMSO (0.1% final DMSO), or a combination of tBH plus Compound A (initial treatment). At 20 hours after the initial treatment, 3,000 Dalton FITC-labeled dextran was added at a concentration of 0.1 mg/ml to the apical surface of the cell culture and the culture was further incubated. Fluorescence of the media bathing the basolateral surface was then measured at 44 hours. Wavelengths for FITC were 494 ex/518 em.

CCCCCCCC(=O)CC[C@@H]1[C@@H](C/C=C\CCCC(=O)OC(C)C)[C@@H](O)C[C@H]1O [Compound A, 13,14-dihydro-15-keto-20-ethyl-PGF2α isopropyl ester]
Effect on cell death induced by A2E/light exposure ([1]; 10 and 50 nM, A2E + blue light exposure): prevented cell death induced by A2E/light exposure | viability at 0.01 µM ([1]; Homo sapiens, ARPE-19, 10 nM, A2E + light exposure (430 nm, 20 min), compound added 1 hr before light, WST-8 after 24 hours): 90% | viability at 0.05 µM ([1]; Homo sapiens, ARPE-19, 50 nM, A2E + light exposure (430 nm, 20 min), compound added 1 hr before light, WST-8 after 24 hours): 89% | Effect on the loss of TER caused by tBH [2]: protected against the loss of TER caused by tBH | Effect on the loss of barrier function caused by tBH (passage of 3,000 Dalton fluorescent dextran) [3]: protected against the loss of barrier function caused by tBH
